In the NIST ThermoML archive (doi:10.1016/j.jct.2010.09.003):
± gives the expanded uncertainty stated by the source.

Legend:
[1] = xn = mol fraction of the nth substance listed; conditions: Ring tensiometer
[2] = Ring tensiometer

OCCO [1,2-ethanediol] + CC#N
surface tension liquid-gas ([1]; 283.15 K, x2 = 0.0102): 47.92 ± 0.65 mN/m | surface tension liquid-gas ([1]; 283.15 K, x2 = 0.0202): 46.5 ± 0.63 mN/m | surface tension liquid-gas ([1]; 283.15 K, x2 = 0.0349): 44.85 ± 0.61 mN/m | surface tension liquid-gas ([1]; 283.15 K, x2 = 0.0488): 41.85 ± 0.57 mN/m | surface tension liquid-gas ([1]; 283.15 K, x2 = 0.0611): 41.1 ± 0.57 mN/m | surface tension liquid-gas ([1]; 283.15 K, x2 = 0.0851): 39 ± 0.54 mN/m | surface tension liquid-gas ([1]; 283.15 K, x2 = 0.0936): 38.18 ± 0.54 mN/m | surface tension liquid-gas ([1]; 283.15 K, x2 = 0.102): 36.99 ± 0.52 mN/m | surface tension liquid-gas ([1]; 283.15 K, x2 = 0.1141): 36.8 ± 0.52 mN/m | surface tension liquid-gas ([1]; 283.15 K, x2 = 0.126): 35.72 ± 0.51 mN/m | surface tension liquid-gas ([1]; 283.15 K, x2 = 0.1413): 34 ± 0.49 mN/m | surface tension liquid-gas ([1]; 283.15 K, x2 = 0.1561): 33.22 ± 0.48 mN/m | surface tension liquid-gas ([1]; 283.15 K, x2 = 0.1765): 32.67 ± 0.47 mN/m | surface tension liquid-gas ([1]; 283.15 K, x2 = 0.1902): 32.45 ± 0.47 mN/m | surface tension liquid-gas ([1]; 283.15 K, x2 = 0.2426): 32.01 ± 0.46 mN/m | surface tension liquid-gas ([1]; 283.15 K, x2 = 0.29): 31.75 ± 0.45 mN/m | surface tension liquid-gas ([1]; 283.15 K, x2 = 0.3379): 31.68 ± 0.45 mN/m | surface tension liquid-gas ([1]; 283.15 K, x2 = 0.3895): 31.49 ± 0.45 mN/m | surface tension liquid-gas ([1]; 283.15 K, x2 = 0.4202): 31.44 ± 0.45 mN/m | surface tension liquid-gas ([1]; 283.15 K, x2 = 0.5197): 31.05 ± 0.44 mN/m | surface tension liquid-gas ([1]; 283.15 K, x2 = 0.7564): 30.55 ± 0.43 mN/m | surface tension liquid-gas ([1]; 283.15 K, x2 = 0.9008): 30.01 ± 0.43 mN/m | surface tension liquid-gas ([1]; 298.15 K, x2 = 0.0109): 47.82 ± 0.64 mN/m | surface tension liquid-gas ([1]; 298.15 K, x2 = 0.0199): 47.46 ± 0.64 mN/m | surface tension liquid-gas ([1]; 298.15 K, x2 = 0.0361): 46.85 ± 0.63 mN/m | surface tension liquid-gas ([1]; 298.15 K, x2 = 0.072): 45.45 ± 0.62 mN/m | surface tension liquid-gas ([1]; 298.15 K, x2 = 0.0845): 44.97 ± 0.61 mN/m | surface tension liquid-gas ([1]; 298.15 K, x2 = 0.1012): 44.23 ± 0.6 mN/m | surface tension liquid-gas ([1]; 298.15 K, x2 = 0.1402): 42.7 ± 0.6 mN/m | surface tension liquid-gas ([1]; 298.15 K, x2 = 0.1599): 40.49 ± 0.56 mN/m | surface tension liquid-gas ([1]; 298.15 K, x2 = 0.1992): 40.13 ± 0.55 mN/m | surface tension liquid-gas ([1]; 298.15 K, x2 = 0.2569): 37.76 ± 0.52 mN/m | surface tension liquid-gas ([1]; 298.15 K, x2 = 0.2999): 36.35 ± 0.51 mN/m | surface tension liquid-gas ([1]; 298.15 K, x2 = 0.35): 34.9 ± 0.5 mN/m | surface tension liquid-gas ([1]; 298.15 K, x2 = 0.4345): 33 ± 1 mN/m | surface tension liquid-gas ([1]; 298.15 K, x2 = 0.4888): 32.25 ± 0.45 mN/m | surface tension liquid-gas ([1]; 298.15 K, x2 = 0.5699): 31.53 ± 0.45 mN/m | surface tension liquid-gas ([1]; 298.15 K, x2 = 0.6321): 31.01 ± 0.44 mN/m | surface tension liquid-gas ([1]; 298.15 K, x2 = 0.7099): 30.49 ± 0.43 mN/m | surface tension liquid-gas ([1]; 298.15 K, x2 = 0.7765): 30.17 ± 0.43 mN/m | surface tension liquid-gas ([1]; 298.15 K, x2 = 0.8499): 29.71 ± 0.42 mN/m | surface tension liquid-gas ([1]; 308.15 K, x2 = 0.0202): 46.45 ± 0.63 mN/m | surface tension liquid-gas ([1]; 308.15 K, x2 = 0.0349): 45.63 ± 0.62 mN/m | surface tension liquid-gas ([1]; 308.15 K, x2 = 0.0674): 43.75 ± 0.6 mN/m | surface tension liquid-gas ([1]; 308.15 K, x2 = 0.0851): 42.8 ± 0.59 mN/m | surface tension liquid-gas ([1]; 308.15 K, x2 = 0.1021): 41.75 ± 0.57 mN/m | surface tension liquid-gas ([1]; 308.15 K, x2 = 0.1568): 39.26 ± 0.54 mN/m | surface tension liquid-gas ([1]; 308.15 K, x2 = 0.1852): 37.85 ± 0.53 mN/m | surface tension liquid-gas ([1]; 308.15 K, x2 = 0.1987): 37.18 ± 0.52 mN/m | surface tension liquid-gas ([1]; 308.15 K, x2 = 0.2426): 35.5 ± 0.5 mN/m | surface tension liquid-gas ([1]; 308.15 K, x2 = 0.2976): 34.05 ± 0.48 mN/m | surface tension liquid-gas ([1]; 308.15 K, x2 = 0.4144): 31.64 ± 0.45 mN/m | surface tension liquid-gas ([1]; 308.15 K, x2 = 0.4734): 30.85 ± 0.44 mN/m | surface tension liquid-gas ([1]; 308.15 K, x2 = 0.5101): 30.41 ± 0.43 mN/m | surface tension liquid-gas ([1]; 308.15 K, x2 = 0.6453): 28.95 ± 0.42 mN/m | surface tension liquid-gas ([1]; 308.15 K, x2 = 0.7654): 28.53 ± 0.41 mN/m | surface tension liquid-gas ([1]; 308.15 K, x2 = 0.9352): 27.83 ± 0.4 mN/m

OCCO [1,2-ethanediol] + O
surface tension liquid-gas ([1]; 283.15 K, x1 = 0.0078): 73.5 ± 0.93 mN/m | surface tension liquid-gas ([1]; 283.15 K, x1 = 0.0132): 72.59 ± 0.92 mN/m | surface tension liquid-gas ([1]; 283.15 K, x1 = 0.0216): 71.19 ± 0.91 mN/m | surface tension liquid-gas ([1]; 283.15 K, x1 = 0.0334): 69.9 ± 0.89 mN/m | surface tension liquid-gas ([1]; 283.15 K, x1 = 0.0498): 68.63 ± 0.88 mN/m | surface tension liquid-gas ([1]; 283.15 K, x1 = 0.0632): 67.15 ± 0.86 mN/m | surface tension liquid-gas ([1]; 283.15 K, x1 = 0.0875): 64.99 ± 0.83 mN/m | surface tension liquid-gas ([1]; 283.15 K, x1 = 0.1152): 63.9 ± 0.82 mN/m | surface tension liquid-gas ([1]; 283.15 K, x1 = 0.1436): 62.16 ± 0.8 mN/m | surface tension liquid-gas ([1]; 283.15 K, x1 = 0.1635): 60.8 ± 0.79 mN/m | surface tension liquid-gas ([1]; 283.15 K, x1 = 0.2002): 59.26 ± 0.77 mN/m | surface tension liquid-gas ([1]; 283.15 K, x1 = 0.2509): 57.72 ± 0.75 mN/m | surface tension liquid-gas ([1]; 283.15 K, x1 = 0.2895): 56.46 ± 0.74 mN/m | surface tension liquid-gas ([1]; 283.15 K, x1 = 0.4112): 54.53 ± 0.71 mN/m | surface tension liquid-gas ([1]; 283.15 K, x1 = 0.4753): 53.16 ± 0.7 mN/m | surface tension liquid-gas ([1]; 283.15 K, x1 = 0.6668): 51.62 ± 0.68 mN/m | surface tension liquid-gas ([1]; 283.15 K, x1 = 0.7562): 50.82 ± 0.68 mN/m | surface tension liquid-gas ([1]; 283.15 K, x1 = 0.8958): 49.84 ± 0.67 mN/m | surface tension liquid-gas ([1]; 298.15 K, x1 = 0.0083): 71.18 ± 0.91 mN/m | surface tension liquid-gas ([1]; 298.15 K, x1 = 0.0144): 70.41 ± 0.9 mN/m | surface tension liquid-gas ([1]; 298.15 K, x1 = 0.0246): 69.25 ± 0.88 mN/m | surface tension liquid-gas ([1]; 298.15 K, x1 = 0.0351): 68.12 ± 0.87 mN/m | surface tension liquid-gas ([1]; 298.15 K, x1 = 0.0466): 66.95 ± 0.86 mN/m | surface tension liquid-gas ([1]; 298.15 K, x1 = 0.0556): 66.14 ± 0.85 mN/m | surface tension liquid-gas ([1]; 298.15 K, x1 = 0.0899): 63.74 ± 0.82 mN/m | surface tension liquid-gas ([1]; 298.15 K, x1 = 0.1042): 62.68 ± 0.81 mN/m | surface tension liquid-gas ([1]; 298.15 K, x1 = 0.1342): 61.16 ± 0.79 mN/m | surface tension liquid-gas ([1]; 298.15 K, x1 = 0.1624): 59.99 ± 0.78 mN/m | surface tension liquid-gas ([1]; 298.15 K, x1 = 0.1989): 58.5 ± 0.8 mN/m | surface tension liquid-gas ([1]; 298.15 K, x1 = 0.2499): 56.89 ± 0.74 mN/m | surface tension liquid-gas ([1]; 298.15 K, x1 = 0.2996): 55.65 ± 0.73 mN/m | surface tension liquid-gas ([1]; 298.15 K, x1 = 0.401): 53.63 ± 0.7 mN/m | surface tension liquid-gas ([1]; 298.15 K, x1 = 0.4999): 52.22 ± 0.69 mN/m | surface tension liquid-gas ([1]; 298.15 K, x1 = 0.65): 50.65 ± 0.67 mN/m | surface tension liquid-gas ([1]; 298.15 K, x1 = 0.75): 49.82 ± 0.66 mN/m | surface tension liquid-gas ([1]; 298.15 K, x1 = 0.8987): 48.68 ± 0.65 mN/m | surface tension liquid-gas ([1]; 308.15 K, x1 = 0.008): 69.14 ± 0.88 mN/m | surface tension liquid-gas ([1]; 308.15 K, x1 = 0.0141): 68.26 ± 0.87 mN/m | surface tension liquid-gas ([1]; 308.15 K, x1 = 0.0253): 66.81 ± 0.86 mN/m | surface tension liquid-gas ([1]; 308.15 K, x1 = 0.0353): 65.67 ± 0.84 mN/m | surface tension liquid-gas ([1]; 308.15 K, x1 = 0.0511): 64.1 ± 0.82 mN/m | surface tension liquid-gas ([1]; 308.15 K, x1 = 0.0556): 63.7 ± 0.82 mN/m | surface tension liquid-gas ([1]; 308.15 K, x1 = 0.0905): 61.09 ± 0.79 mN/m | surface tension liquid-gas ([1]; 308.15 K, x1 = 0.1113): 59.86 ± 0.78 mN/m | surface tension liquid-gas ([1]; 308.15 K, x1 = 0.1445): 58.26 ± 0.76 mN/m | surface tension liquid-gas ([1]; 308.15 K, x1 = 0.1602): 57.62 ± 0.75 mN/m | surface tension liquid-gas ([1]; 308.15 K, x1 = 0.2132): 55.84 ± 0.73 mN/m | surface tension liquid-gas ([1]; 308.15 K, x1 = 0.2485): 54.9 ± 0.72 mN/m | surface tension liquid-gas ([1]; 308.15 K, x1 = 0.3201): 53.39 ± 0.7 mN/m | surface tension liquid-gas ([1]; 308.15 K, x1 = 0.4126): 51.95 ± 0.69 mN/m | surface tension liquid-gas ([1]; 308.15 K, x1 = 0.5054): 50.84 ± 0.67 mN/m | surface tension liquid-gas ([1]; 308.15 K, x1 = 0.6501): 49.52 ± 0.66 mN/m | surface tension liquid-gas ([1]; 308.15 K, x1 = 0.7406): 48.84 ± 0.65 mN/m | surface tension liquid-gas ([1]; 308.15 K, x1 = 0.8875): 47.91 ± 0.64 mN/m

OCCO [1,2-ethanediol]
surface tension liquid-gas ([2]; 283.15 K): 49.27 ± 0.66 mN/m | surface tension liquid-gas ([2]; 298.15 K): 48.22 ± 0.65 mN/m | surface tension liquid-gas ([2]; 308.15 K): 47.29 ± 0.64 mN/m

CC#N [acetonitrile]
surface tension liquid-gas ([2]; 283.15 K): 29.73 ± 0.42 mN/m | surface tension liquid-gas ([2]; 298.15 K): 28.2 ± 0.41 mN/m | surface tension liquid-gas ([2]; 308.15 K): 27.47 ± 0.4 mN/m
